Test results as given in ChEMBL document CHEMBL3885861, “Open TG-GATES”.

Organism: Rattus norvegicus
Assay: Open TG-GATES - Regimen: Daily Repeat
Format: toxicity, organism-based, Sprague-Dawley
Design: regimen Daily Repeat, gender Male, age 6 weeks
Conditions: in vivo, po, route gavage; for TP / gamma-GTP / ALP / ALT / AST / CRE / Ca / Cl / DBIL / GLC / IP / K / LDH / RALB / TBIL / TC / TG: tissue Plasma; for APTT / Bas / Eos / Fbg / Ht / Lym / MCH / MCHC / MCV / Mono / PT / Plat / RBC / Ret / WBC / Neu: tissue Blood; for KIDNEY_L / KIDNEY_R / KIDNEY_TOTAL: tissue Kidney
[1] = 10 mg/kg, […], dose level Low, time 28 day
[2] = 30 mg/kg, 72 h, dose level Middle, time 3 day
[3] = 30 mg/kg, […], dose level Middle, time 7 day
[4] = 30 mg/kg, […], dose level Middle, time 14 day
[5] = 30 mg/kg, […], dose level Middle, time 28 day
[6] = 100 mg/kg, 72 h, dose level High, time 3 day
[7] = 100 mg/kg, […], dose level High, time 7 day
[8] = 100 mg/kg, […], dose level High, time 14 day
[9] = 100 mg/kg, […], dose level High, time 28 day

Cn1c(=O)c2c(ncn2C)n(C)c1=O [CAFFEINE]
TP [1]: 6 g/dL
gamma-GTP [1]: 2.4 IU/L
TERMINAL_BW [2]: 223.8 g
APTT [2]: 20.9 s
Bas [2]: 0%
Eos [2]: 0.8%
Fbg [2]: 330 mg/dL
Ht [2]: 41.1%
Lym [2]: 84%
MCH [2]: 21.2 pg
MCHC [2]: 33.4%
MCV [2]: 63.6 fL
Mono [2]: 1.2%
PT [2]: 15.5 s
Plat [2]: 114.5 x10_4/uL
RBC [2]: 646.4 x10_4/ul
Ret [2]: 5.2%
WBC [2]: 61.4 x10_2/uL
KIDNEY_L [2]: 1 g
KIDNEY_R [2]: 1 g
KIDNEY_TOTAL [2]: 2 g
ALP [2]: 1647.8 IU/L
ALT [2]: 40 IU/L
AST [2]: 67.4 IU/L
CRE [2]: 0.2 mg/dL
Ca [2]: 10.7 mg/dL
Cl [2]: 108.8 meq/L
DBIL [2]: 0 mg/dL
GLC [2]: 179.6 mg/dL
IP [2]: 8.1 mg/dL
K [2]: 4.4 meq/L
LDH [2]: 140.2 IU/L
RALB [2]: 3.1 g/dL
TBIL [2]: 0.004 mg/dL
TC [2]: 73.8 mg/dL
TG [2]: 87.6 mg/dL
TP [2]: 5.6 g/dL
gamma-GTP [2]: 1.2 IU/L
TERMINAL_BW [3]: 245.2 g
TERMINAL_BW [4]: 286.3 g
TERMINAL_BW [5]: 380.2 g
APTT [3]: 23.2 s
Bas [3]: 0%
Eos [3]: 0.8%
Fbg [3]: 310.2 mg/dL
Lym [3]: 80.8%
MCHC [3]: 33.6%
MCV [3]: 60.9 fL
Mono [3]: 1.4%
Neu [3]: 16%
PT [3]: 15.2 s
Plat [3]: 115.9 x10_4/uL
RBC [3]: 687.8 x10_4/ul
Ret [3]: 5.4%
WBC [3]: 79 x10_2/uL
APTT [4]: 23.9 s
Bas [4]: 0%
Eos [4]: 1%
Fbg [4]: 309 mg/dL
Ht [4]: 43.4%
Lym [4]: 76.2%
MCH [4]: 19.7 pg
MCHC [4]: 33.7%
MCV [4]: 58.4 fL
Mono [4]: 2%
Neu [4]: 20%
PT [4]: 15.2 s
Plat [4]: 109.9 x10_4/uL
RBC [4]: 743.8 x10_4/ul
Ret [4]: 3.9%
WBC [4]: 108 x10_2/uL
Bas [5]: 0%
Eos [5]: 1%
Fbg [5]: 315.2 mg/dL
Ht [5]: 43.1%
Lym [5]: 79.6%
MCH [5]: 19.4 pg
MCHC [5]: 35%
MCV [5]: 55.4 fL
Mono [5]: 2.4%
PT [5]: 15.5 s
Plat [5]: 100.3 x10_4/uL
RBC [5]: 778.6 x10_4/ul
Ret [5]: 2.7%
WBC [5]: 99.4 x10_2/uL
KIDNEY_L [3]: 1 g
KIDNEY_R [3]: 1 g
KIDNEY_TOTAL [3]: 2.1 g
KIDNEY_L [4]: 1.1 g
KIDNEY_R [4]: 1.2 g
KIDNEY_TOTAL [4]: 2.3 g
KIDNEY_L [5]: 1.5 g
KIDNEY_R [5]: 1.5 g
KIDNEY_TOTAL [5]: 3 g
ALP [3]: 1455 IU/L
ALT [3]: 45.6 IU/L
AST [3]: 75.6 IU/L
CRE [3]: 0.1 mg/dL
Ca [3]: 10.4 mg/dL
Cl [3]: 106.4 meq/L
DBIL [3]: 0 mg/dL
GLC [3]: 182.4 mg/dL
IP [3]: 7.7 mg/dL
K [3]: 4.1 meq/L
LDH [3]: 158.8 IU/L
RALB [3]: 3.1 g/dL
TBIL [3]: 0.01 mg/dL
TC [3]: 74.6 mg/dL
TG [3]: 79.8 mg/dL
TP [3]: 5.7 g/dL
gamma-GTP [3]: 1.6 IU/L
ALP [4]: 1460.4 IU/L
ALT [4]: 47.6 IU/L
AST [4]: 75.6 IU/L
CRE [4]: 0.2 mg/dL
Ca [4]: 10.4 mg/dL
Cl [4]: 106.6 meq/L
DBIL [4]: 0 mg/dL
GLC [4]: 196 mg/dL
IP [4]: 7 mg/dL
K [4]: 4.2 meq/L
LDH [4]: 145.8 IU/L
RALB [4]: 3 g/dL
TBIL [4]: 0.002 mg/dL
TC [4]: 73.2 mg/dL
TG [4]: 139.6 mg/dL
TP [4]: 5.9 g/dL
gamma-GTP [4]: 2.4 IU/L
ALP [5]: 1003 IU/L
ALT [5]: 44.8 IU/L
AST [5]: 71.8 IU/L
CRE [5]: 0.2 mg/dL
Ca [5]: 10.7 mg/dL
Cl [5]: 105.2 meq/L
DBIL [5]: 0 mg/dL
GLC [5]: 189.6 mg/dL
IP [5]: 7.6 mg/dL
K [5]: 3.9 meq/L
LDH [5]: 126.6 IU/L
RALB [5]: 3.2 g/dL
TBIL [5]: 0.01 mg/dL
TC [5]: 85.8 mg/dL
TG [5]: 88.6 mg/dL
TP [5]: 6.1 g/dL
gamma-GTP [5]: 2 IU/L
TERMINAL_BW [6]: 205.8 g
APTT [6]: 22.4 s
Bas [6]: 0%
Eos [6]: 1%
Fbg [6]: 319.6 mg/dL
Lym [6]: 74.4%
MCHC [6]: 33.8%
MCV [6]: 60.6 fL
Mono [6]: 1.6%
Neu [6]: 22.4%
PT [6]: 15.8 s
Plat [6]: 126.2 x10_4/uL
RBC [6]: 686 x10_4/ul
Ret [6]: 4.3%
WBC [6]: 81.5 x10_2/uL
KIDNEY_L [6]: 0.9 g
KIDNEY_R [6]: 0.9 g
KIDNEY_TOTAL [6]: 1.8 g
ALT [6]: 38 IU/L
AST [6]: 70.2 IU/L
CRE [6]: 0.2 mg/dL
Ca [6]: 10.8 mg/dL
Cl [6]: 108.6 meq/L
DBIL [6]: 0 mg/dL
GLC [6]: 169.6 mg/dL
IP [6]: 8.9 mg/dL
K [6]: 4.4 meq/L
LDH [6]: 159.6 IU/L
RALB [6]: 3.2 g/dL
TBIL [6]: 0.018 mg/dL
TG [6]: 43 mg/dL
TP [6]: 5.8 g/dL
gamma-GTP [6]: 1 IU/L
TERMINAL_BW [7]: 226.6 g
TERMINAL_BW [8]: 270 g
TERMINAL_BW [9]: 302.8 g
APTT [7]: 22.8 s
Bas [7]: 0%
Eos [7]: 1%
Fbg [7]: 321.8 mg/dL
Lym [7]: 80.8%
MCHC [7]: 34%
MCV [7]: 60.4 fL
Mono [7]: 2%
Neu [7]: 15.2%
PT [7]: 15.3 s
Plat [7]: 109.2 x10_4/uL
RBC [7]: 705.4 x10_4/ul
Ret [7]: 4.8%
WBC [7]: 100.2 x10_2/uL
APTT [8]: 24.3 s
Bas [8]: 0%
Eos [8]: 0.4%
Fbg [8]: 320.6 mg/dL
Ht [8]: 44.2%
Lym [8]: 80%
MCH [8]: 20.1 pg
MCV [8]: 58.9 fL
Mono [8]: 2%
Neu [8]: 16.6%
PT [8]: 15.5 s
Plat [8]: 110.4 x10_4/uL
RBC [8]: 750.4 x10_4/ul
Ret [8]: 3.5%
WBC [8]: 105.7 x10_2/uL
APTT [9]: 23.7 s
Bas [9]: 0%
Eos [9]: 1%
Fbg [9]: 308.2 mg/dL
Lym [9]: 75.6%
MCH [9]: 19.1 pg
MCHC [9]: 34.9%
MCV [9]: 54.8 fL
Mono [9]: 2.8%
Neu [9]: 18.8%
PT [9]: 15.9 s
Plat [9]: 97.1 x10_4/uL
RBC [9]: 829 x10_4/ul
Ret [9]: 2.1%
WBC [9]: 98.3 x10_2/uL
KIDNEY_L [7]: 1 g
KIDNEY_R [7]: 1 g
KIDNEY_TOTAL [7]: 2 g
KIDNEY_L [8]: 1.2 g
KIDNEY_R [8]: 1.2 g
KIDNEY_TOTAL [8]: 2.4 g
KIDNEY_L [9]: 1.2 g
KIDNEY_R [9]: 1.2 g
KIDNEY_TOTAL [9]: 2.5 g
ALP [7]: 1284.2 IU/L
ALT [7]: 41.2 IU/L
AST [7]: 74.6 IU/L
CRE [7]: 0.1 mg/dL
Ca [7]: 10.4 mg/dL
Cl [7]: 106.2 meq/L
DBIL [7]: 0 mg/dL
GLC [7]: 182.8 mg/dL
IP [7]: 8.5 mg/dL
K [7]: 4.2 meq/L
LDH [7]: 175.6 IU/L
RALB [7]: 3 g/dL
TBIL [7]: 0.016 mg/dL
TC [7]: 84 mg/dL
TG [7]: 77.4 mg/dL
TP [7]: 5.7 g/dL
gamma-GTP [7]: 1.6 IU/L
ALP [8]: 1222.6 IU/L
ALT [8]: 46.8 IU/L
AST [8]: 80.6 IU/L
CRE [8]: 0.2 mg/dL
Ca [8]: 10.6 mg/dL
Cl [8]: 105.8 meq/L
DBIL [8]: 0 mg/dL
GLC [8]: 184.8 mg/dL
IP [8]: 8 mg/dL
K [8]: 4.2 meq/L
LDH [8]: 140.2 IU/L
RALB [8]: 3.1 g/dL
TBIL [8]: 0.022 mg/dL
TC [8]: 80.4 mg/dL
TG [8]: 83.4 mg/dL
TP [8]: 5.8 g/dL
gamma-GTP [8]: 2 IU/L
ALP [9]: 1068.4 IU/L
ALT [9]: 53.8 IU/L
AST [9]: 85.4 IU/L
CRE [9]: 0.2 mg/dL
Ca [9]: 10.4 mg/dL
Cl [9]: 106.2 meq/L
DBIL [9]: 0 mg/dL
GLC [9]: 180.8 mg/dL
IP [9]: 7.8 mg/dL
K [9]: 4.2 meq/L
LDH [9]: 163 IU/L
RALB [9]: 3.2 g/dL
TBIL [9]: 0.034 mg/dL
TC [9]: 80.2 mg/dL
TG [9]: 77 mg/dL
TP [9]: 6 g/dL
gamma-GTP [9]: 2.6 IU/L
